Values of other authors, collected in patent US20180298405A1, “METHODS AND COMPOSITIONS TO INCREASE HUMAN SOMATIC CELL NUCLEAR TRANSFER (SCNT) EFFICIENCY BY REMOVING HISTONE H3-LYSINE TRIMETHYLATION, AND DERIVATION OF HUMAN NT-ESC” (CHILDREN'S MEDICAL CENTER CORPORATION, priority 2015, published 2018).

Tested on: SETDB1 H3K9me3 HMTase; H3K27me3 and H3K9me3
Settings: Lee et al., 2013; cited from earlier work

## Nc1nccc2c1ncn2[C@@H]1C=C(CO)[C@@H](O)[C@H]1O [3-Deazaneplanocin A]
  effect on H3K27me3 and H3K9me3 levels: reduced levels of both H3K27me3 and H3K9me3
  effect on SETDB1 H3K9me3 HMTase: decrease of SETDB1 H3K9me3 HMTase
